The target in one assay is T1, JAK2 (Homo sapiens, UniProt O60674).
T1 construct: endogenous in cells; host or cells: mixed Molt4/Ramos lysate (1:2)
Put plainly: Kinobeads assay, JAK2. Type of assay: binding. The settings on record: mixed Molt4/Ramos lysate, read-out: Inhibition values (IC50) JAK2. On the procedure:
(§1) The compounds of the present invention as described in the previous examples were tested in a Kinobeads™ assay as described for ZAP-70 (WO-A 2007/137867). Briefly, test compounds (at various concentrations) and the affinity matrix with the immobilized aminopyrido-pyrimidine ligand 24 were added to cell lysate aliquots and allowed to bind to the proteins in the lysate sample. After the incubation time the beads with captured proteins were separated from the lysate. Bound proteins were then eluted and the presence of JAK2 and JAK3 was detected and quantified using specific antibodies in a dot blot procedure and the Odyssey infrared detection system. Dose response curves for individual kinases were generated and IC50 values calculated. Kinobeads™ assays for ZAP-70 (WO-A 2007/137867) and for kinase selectivity profiling (WO-A 2006/134056) have been previously described.
(§2) The affinity matrix was washed two times with 15 mL of 1×DP buffer containing 0.2% NP40 (IGEPAL® CA-630, Sigma, #I3021) and then resuspended in 1×DP buffer containing 0.2% NP40 (3% beads slurry).
(§3) 5×DP buffer 250 mM Tris-HCl pH 7.4, 25% Glycerol, 7.5 mM MgCl2, 750 mM NaCl, 5 mM Na3VO4; filter the 5×DP buffer through a 0.22 μm filter and store in aliquots at −80° C. The 5×DP buffer is diluted with H2O to 1×DP buffer containing 1 mM DTT and 25 mM NaF.
(§4) Stock solutions of test compounds were prepared in DMSO. In a 96 well plate 30 μL solution of diluted test compounds at 5 mM in DMSO were prepared. Starting with this solution a 1:3 dilution series (9 steps) was prepared. For control experiments (no test compound) a buffer containing 2% DMSO was used.
Molt4 cells (ATCC catalogue number CRL-1582) and Ramos cells (ATCC catalogue number CRL-1596) were grown in 1 L Spinner flasks (Integra Biosciences, #182101) in suspension in RPMI 1640 medium (Invitrogen, #21875-034) supplemented with 10% Fetal Bovine Serum (Invitrogen) at a density between 0.15×106 and 1.2×10^6 cells/mL. Cells were harvested by centrifugation, washed once with 1×PBS buffer (Invitrogen, #14190-094) and cell pellets were frozen in liquid nitrogen and subsequently stored at −80° C. Cells were homogenized in a Potter S homogenizer in lysis buffer: 50 mM Tris-HCl, 0.8% NP40, 5% glycerol, 150 mM NaCl, 1.5 mM MgCl2, 25 mM NaF, 1 mM sodium vanadate, 1 mM DTT, pH 7.5. One complete EDTA-free tablet (protease inhibitor cocktail, Roche Diagnostics, 1873580) per 25 mL buffer was added. The material was dounced 10 times using a mechanized POTTER S, transferred to 50 mL falcon tubes, incubated for 30 minutes on ice and spun down for 10 minutes at 20,000 g at 4° C. (10,000 rpm in Sorvall SLA600, precooled). The supernatant was transferred to an ultracentrifuge (UZ)-polycarbonate tube (Beckmann, 355654) and spun for 1 hour at 100,000 g at 4° C. (33.500 rpm in Ti50.2, precooled). The supernatant was transferred again to a fresh 50 mL falcon tube, the protein concentration was determined by a Bradford assay (BioRad) and samples containing 50 mg of protein per aliquot were prepared. The samples were immediately used for experiments or frozen in liquid nitrogen and stored frozen at −80° C.
(§5) Cell lysate (approximately 50 mg protein per plate) was thawed in a water bath at room temperature and then stored on ice. To the thawed cell lysate 1×DP 0.8% NP40 buffer containing protease inhibitors (1 tablet for 25 mL buffer; EDTA-free protease inhibitor cocktail; Roche Diagnostics 1873580) was added in order to reach a final protein concentration of 10 mg/mL total protein. The diluted cell lysate was stored on ice. Mixed Molt4/Ramos lysate was prepared by combining one volume of Molt4 lysate and two volumes of Ramos lysate (ratio 1:2).
To a 96 well filter plate (Multiscreen HTS, BV Filter Plates, Millipore #MSBVN1250) were added per well: 100 μL affinity matrix (3% beads slurry), 3 μL of compound solution, and 50 μL of diluted lysate. […]

The next assay addresses T2, Aurora A (Homo sapiens, UniProt O14965).
T2 construct: cell lysates from Jurkat cells (ATCC TIB-152) used; endogenous in cells; host or cells: Jurkat cells (ATCC TIB-152), treated with pervanadate
T2 sequence (O14965 1-403): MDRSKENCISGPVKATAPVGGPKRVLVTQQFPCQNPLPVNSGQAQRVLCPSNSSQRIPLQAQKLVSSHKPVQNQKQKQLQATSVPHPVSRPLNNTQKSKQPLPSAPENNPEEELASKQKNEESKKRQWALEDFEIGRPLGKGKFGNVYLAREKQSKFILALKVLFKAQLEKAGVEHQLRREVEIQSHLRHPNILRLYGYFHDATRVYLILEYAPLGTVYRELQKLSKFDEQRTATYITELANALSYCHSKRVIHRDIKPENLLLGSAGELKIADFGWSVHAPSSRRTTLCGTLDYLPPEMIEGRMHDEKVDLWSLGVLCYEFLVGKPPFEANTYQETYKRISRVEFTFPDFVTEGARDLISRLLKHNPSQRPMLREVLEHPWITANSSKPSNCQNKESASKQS
Put plainly: Kinobeads assay, Aurora A. The settings on record: for IC50: lysate of pervanadate-treated Jurkat cells, read-out: Inhibition values (IC50) Aur A. Type of assay: binding. On the procedure:
as §1, §2, §3, §4, §5
To a 96 well filter plate (Multiscreen HTS, BV Filter Plates, Millipore #MSBVN1250) were added per well: 100 μL affinity matrix (3% beads slurry), 3 μL of compound solution, and 50 μL of diluted lysate. Plates were sealed and incubated for 3 hours in a cold room on a plate shaker (Heidolph tiramax 1000) at 750 rpm. Afterwards the plate was washed 3 times with 230 μL washing buffer (1×DP 0.4% NP40). The filter plate was placed on top of a collection 1 plate (Greiner bio-one, PP-microplate 96 well V-shape, 65120) and the beads were then eluted with 20 μL of sample buffer (100 mM Tris, pH 7.4, 4% SDS, 0.00025% bromophenol blue, 20% glycerol, 50 mM DTT). The eluate was frozen quickly at −80° C. and stored at −20° C.
The kinases in the eluates were detected and quantified by spotting on nitrocellulose membranes and using a first antibody directed against the kinase of interest and a fluorescently labelled secondary antibody (anti-rabbit IRDye™ antibody 800 (Licor, #926-32211). The Odyssey Infrared Imaging system from LI-COR Biosciences (Lincoln, Nebr., USA) was operated according to instructions provided by the manufacturer (Schutz-Geschwendener et al, 2004. Quantitative, two-color Western blot detection with infrared fluorescence. Published May 2004 by LI-COR Biosciences, www.licor.com).
After spotting of the eluates the nitrocellulose membrane (BioTrace NT; PALL, #BTNT30R) was first blocked by incubation with Odyssey blocking buffer (LICOR, 927-40000) for 1 hour at room temperature. Blocked membranes were then incubated for 16 hours at the temperature shown in Table 5 with the first antibody diluted in Odyssey blocking buffer (LICOR #927-40000). Afterwards the membrane was washed twice for 10 minutes with PBS buffer containing 0.2% Tween 20 at room temperature. […]

From patent US9040545B2, “Heterocyclyl pyrazolopyrimidine analogues as selective JAK inhibitors” (Cellzome Limited, priority 2010, dated 2015) come the findings set out here.

A value given as a limit tells only on which side of the number the result lay.

T1 sequence (O60674 whole entry): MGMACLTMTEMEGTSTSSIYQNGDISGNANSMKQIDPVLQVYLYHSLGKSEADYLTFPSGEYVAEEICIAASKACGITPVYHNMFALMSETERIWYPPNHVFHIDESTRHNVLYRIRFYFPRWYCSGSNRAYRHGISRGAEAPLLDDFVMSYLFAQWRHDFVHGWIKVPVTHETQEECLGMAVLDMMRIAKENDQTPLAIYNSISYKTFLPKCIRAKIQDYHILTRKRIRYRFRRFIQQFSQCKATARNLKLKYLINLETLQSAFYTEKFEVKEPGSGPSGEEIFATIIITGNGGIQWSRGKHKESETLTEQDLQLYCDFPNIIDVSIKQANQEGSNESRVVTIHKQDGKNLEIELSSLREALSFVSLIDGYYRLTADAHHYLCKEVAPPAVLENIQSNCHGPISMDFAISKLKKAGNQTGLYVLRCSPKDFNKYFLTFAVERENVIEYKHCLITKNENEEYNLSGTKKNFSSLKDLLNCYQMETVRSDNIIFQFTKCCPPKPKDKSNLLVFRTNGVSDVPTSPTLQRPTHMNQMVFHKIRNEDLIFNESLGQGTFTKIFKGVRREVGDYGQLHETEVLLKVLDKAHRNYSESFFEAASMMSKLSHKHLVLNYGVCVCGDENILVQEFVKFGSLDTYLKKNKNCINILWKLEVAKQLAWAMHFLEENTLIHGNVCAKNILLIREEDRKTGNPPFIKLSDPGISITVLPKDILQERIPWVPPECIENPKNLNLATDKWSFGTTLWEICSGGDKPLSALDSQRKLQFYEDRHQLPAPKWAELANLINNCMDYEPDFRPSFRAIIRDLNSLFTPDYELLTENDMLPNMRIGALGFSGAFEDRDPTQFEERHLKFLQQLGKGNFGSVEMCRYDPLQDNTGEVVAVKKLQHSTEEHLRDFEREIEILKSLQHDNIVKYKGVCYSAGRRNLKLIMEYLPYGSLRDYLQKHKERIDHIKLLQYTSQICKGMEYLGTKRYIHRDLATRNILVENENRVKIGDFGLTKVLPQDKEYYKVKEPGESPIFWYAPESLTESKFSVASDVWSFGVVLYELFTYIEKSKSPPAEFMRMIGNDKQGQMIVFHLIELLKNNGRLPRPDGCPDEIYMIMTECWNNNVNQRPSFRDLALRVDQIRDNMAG

Turning to `C[C@@H]1COCCN1c1cccc(Cn2ncc3cnc(Nc4cnn(C)c4)nc32)n1` [Example 1, (R)—N-(1-Methyl-1H-pyrazol-4-yl)-1-((6-(3-methylmorpholino)pyridin-2-yl)methyl)-1H-pyrazolo[3,4-d]pyrimidin-6-amine], the IC50 (usually the midpoint of a concentration-inhibition curve) at JAK2 is at least 10 µM. At Aurora A, the “JAK3/AurA Fold Selectivity” value is reported as 3-10 Fold and the IC50 was 0.1 to 1 µM.
With `Cn1cc(Nc2ncc3cnn(Cc4cccc(N5CCOCC5)c4)c3n2)cn1` [Example 2, N-(1-Methyl-1H-pyrazol-4-yl)-1-(3-morpholinobenzyl)-1H-pyrazolo[3,4-d]pyrimidin-6-amine], on JAK2, the IC50 lay in the range of 1 to 10 µM. Further, on Aurora A, the “JAK3/AurA Fold Selectivity” value was 10-50 Fold and the 50% inhibitory concentration (IC50) fell in the range of 0.1 to 1 µM.
The like results for `Cn1cc(Nc2ncc3cnn(Cc4cccc(N5CCOCC5)n4)c3n2)cn1` [Example 3, N-(1-Methyl-1H-pyrazol-4-yl)-1-((6-morpholinopyridin-2-yl)methyl)-1H-pyrazolo[3,4-d]pyrimidin-6-amine] were, in that order, at least 10 µM, 10-50 Fold and 0.1 to 1 µM.
The like results for `CN(C)CCCn1cc(Nc2ncc3cnn(Cc4cccc(N5CCOCC5)c4)c3n2)cn1` [Example 4, N-(1-(3-(Dimethylamino)propyl)-1H-pyrazol-4-yl)-1-(3-morpholinobenzyl)-1H-pyrazolo[3,4-d]pyrimidin-6-amine] were, in that order, 1 to 10 µM, above 50 Fold and 1 to 10 µM.
The like results for `OCCn1cc(Nc2ncc3cnn(Cc4cccc(N5CCOCC5)c4)c3n2)cn1` [Example 5, 2-(4-((1-(3-Morpholinobenzyl)-1H-pyrazolo[3,4-d]pyrimidin-6-yl)amino)-1H-pyrazol-1-yl)ethanol] were, in that order, at least 10 µM, 10-50 Fold and 0.1 to 1 µM.
`Cn1cc(Nc2ncc3cnn(Cc4cccc(C(=O)N5CCOCC5)c4)c3n2)cn1` [Example 6, (3-((6-((1-Methyl-1H-pyrazol-4-yl)amino)-1H-pyrazolo[3,4-d]pyrimidin-1-yl)methyl)phenyl)(morpholino)methanone]: the figures for the IC50 on JAK2 and on Aurora A were at least 10 µM and 0.1 to 1 µM, respectively. For the same compound, the “JAK3/AurA Fold Selectivity” value on Aurora A was 10-50 Fold.
The like results for `Cn1cc(Nc2ncc3cnn(Cc4cccc(CN5CCOCC5)c4)c3n2)cn1` [Example 7, N-(1-Methyl-1H-pyrazol-4-yl)-1-(3-(morpholinomethyl)benzyl)-1H-pyrazolo[3,4-d]pyrimidin-6-amine] were, in that order, at least 10 µM, 0.1 to 1 µM and 10-50 Fold.
With `Cn1cc(Nc2ncc3cnn(Cc4cccc(N5CCCCC5)c4)c3n2)cn1` [Example 8, N-(1-Methyl-1H-pyrazol-4-yl)-1-(3-(piperidin-1-yl)benzyl)-1H-pyrazolo[3,4-d]pyrimidin-6-amine], the 50% inhibitory concentration (IC50) at JAK2 was at least 10 µM. Moreover, at Aurora A, the “JAK3/AurA Fold Selectivity” value is reported as 10-50 Fold and the IC50 was 1 to 10 µM.
The like results for `Cn1cc(Nc2ncc3cnn(Cc4cccc(C5CCOCC5)c4)c3n2)cn1` [Example 9, N-(1-Methyl-1H-pyrazol-4-yl)-1-(3-(tetrahydro-2H-pyran-4-yl)benzyl)-1H-pyrazolo[3,4-d]pyrimidin-6-amine] were, in that order, at least 10 µM, 10-50 Fold and 0.1 to 1 µM.
As to `CN1CCN(c2cccc(Cn3ncc4cnc(Nc5cnn(C)c5)nc43)c2)CC1` [Example 10, N-(1-Methyl-1H-pyrazol-4-yl)-1-(3-(4-methylpiperazin-1-yl)benzyl)-1H-pyrazolo[3,4-d]pyrimidin-6-amine], the results for the IC50 on JAK2 and on Aurora A were at least 10 µM and 0.1 to 1 µM, respectively. Besides, on Aurora A, the “JAK3/AurA Fold Selectivity” value is listed as 3-10 Fold.
Turning to `Cc1c(Cn2ncc3cnc(Nc4cnn(C)c4)nc32)cccc1N1CCOCC1` [Example 11, N-(1-Methyl-1H-pyrazol-4-yl)-1-(2-methyl-3-morpholinobenzyl)-1H-pyrazolo[3,4-d]pyrimidin-6-amine], the IC50 is at least 10 µM at JAK2 and 0.1 to 1 µM at Aurora A. The “JAK3/AurA Fold Selectivity” value on Aurora A is 10-50 Fold.
For the compound `CNC(=O)Cn1cc(Nc2ncc3cnn(Cc4cccc(N5CCOCC5)c4)c3n2)cn1` [Example 12, N-Methyl-2-(4-((1-(3-morpholinobenzyl)-1H-pyrazolo[3,4-d]pyrimidin-6-yl)amino)-1H-pyrazol-1-yl)acetamide], the IC50 on JAK2 is at least 10 µM. Besides, on Aurora A, the “JAK3/AurA Fold Selectivity” value is listed as 3-10 Fold and the concentration for half-maximal inhibition (IC50) lay in the range of 0.1 to 1 µM.
On to `CCOC(=O)C1CCCN(c2cccc(Cn3ncc4cnc(Nc5cnn(C)c5)nc43)c2)C1` (stereo not drawn) [Example 13, Ethyl 1-(3-((6-((1-methyl-1H-pyrazol-4-yl)amino)-1H-pyrazolo[3,4-d]pyrimidin-1-yl)methyl)phenyl)piperidine-3-carboxylate], for which the IC50 on JAK2 is at least 10 µM. Also, on Aurora A, the “JAK3/AurA Fold Selectivity” value is recorded as 3-10 Fold and the IC50 fell in the range of 1 to 10 µM.
The like results for `NC(=O)CCn1cc(Nc2ncc3cnn(Cc4cccc(N5CCOCC5)c4)c3n2)cn1` [Example 14, 3-(4-((1-(3-Morpholinobenzyl)-1H-pyrazolo[3,4-d]pyrimidin-6-yl)amino)-1H-pyrazol-1-yl)propanamide] were, in that order, at least 10 µM, 10-50 Fold and 0.1 to 1 µM.
